The values below come from ChEMBL document CHEMBL4251673, “Structurally Diverse Diterpenoids from Sandwithia guyanensis” (J Nat Prod, 2018).

For one series, the system named is Chikungunya virus. Nature of the series: Antiviral activity against Chikungunya virus Indian Ocean 889 infected in African green monkey Vero cells assessed as inhibition of virus-induced cytopathic effect after 7 days by MTS method. The series is classed as functional, organism-based. As to conditions: Indian Ocean 889, Vero, 168 h. (Protection from cytopathic effect is a common read-out in antiviral testing.)

A short description of series [1]: Selectivity index, ratio of CC50 for African green monkey Vero cells to EC50 for Chikungunya virus Indian Ocean 889 infected in African green monkey Vero cells. As to conditions: read-out: Ratio CC50/EC50. The series is classed as toxicity.

A word on the EC50: it is the midpoint of the concentration-response curve. In the case of `C/C1=C\[C@@H]2[C@H](CC[C@]3(C)O[C@H]3C3=C(C1=O)[C@@H](O)[C@H](C)C3=O)C2(C)C`, the EC50 in the series on Chikungunya virus is 14 µM. In series [1], the selectivity ratio was 1.92.
